Reference: US11524951B2, “2-(2,4,5-substituted-anilino)pyrimidine compounds” (AstraZeneca AB, priority 2011, dated 2022)
pIC50: −log10 of the molar value.

Assays:
Format in all cases: cell-based
[1] = target: T1, Exon19 deletion EGFR (Homo sapiens, UniProt P00533, DEL746-750); assay: Exon19 deletion EGFR (activating single mutant) cellular phosphorylation assay; conditions: PC9 human lung cells (Exon 19 deletion EGFR); endogenous p-EGFR in cell lysates by ELISA; 2 h with compound; read-out: Assay 1 (IC50)
T1 construct: Assays to measure cellular phosphorylation of endogenous p-EGFR in cell lysates; endogenous in cells; host or cells: PC9 (human lung cell line)
T1 sequence (P00533 with tags, fused parts or gaps DEL746-750): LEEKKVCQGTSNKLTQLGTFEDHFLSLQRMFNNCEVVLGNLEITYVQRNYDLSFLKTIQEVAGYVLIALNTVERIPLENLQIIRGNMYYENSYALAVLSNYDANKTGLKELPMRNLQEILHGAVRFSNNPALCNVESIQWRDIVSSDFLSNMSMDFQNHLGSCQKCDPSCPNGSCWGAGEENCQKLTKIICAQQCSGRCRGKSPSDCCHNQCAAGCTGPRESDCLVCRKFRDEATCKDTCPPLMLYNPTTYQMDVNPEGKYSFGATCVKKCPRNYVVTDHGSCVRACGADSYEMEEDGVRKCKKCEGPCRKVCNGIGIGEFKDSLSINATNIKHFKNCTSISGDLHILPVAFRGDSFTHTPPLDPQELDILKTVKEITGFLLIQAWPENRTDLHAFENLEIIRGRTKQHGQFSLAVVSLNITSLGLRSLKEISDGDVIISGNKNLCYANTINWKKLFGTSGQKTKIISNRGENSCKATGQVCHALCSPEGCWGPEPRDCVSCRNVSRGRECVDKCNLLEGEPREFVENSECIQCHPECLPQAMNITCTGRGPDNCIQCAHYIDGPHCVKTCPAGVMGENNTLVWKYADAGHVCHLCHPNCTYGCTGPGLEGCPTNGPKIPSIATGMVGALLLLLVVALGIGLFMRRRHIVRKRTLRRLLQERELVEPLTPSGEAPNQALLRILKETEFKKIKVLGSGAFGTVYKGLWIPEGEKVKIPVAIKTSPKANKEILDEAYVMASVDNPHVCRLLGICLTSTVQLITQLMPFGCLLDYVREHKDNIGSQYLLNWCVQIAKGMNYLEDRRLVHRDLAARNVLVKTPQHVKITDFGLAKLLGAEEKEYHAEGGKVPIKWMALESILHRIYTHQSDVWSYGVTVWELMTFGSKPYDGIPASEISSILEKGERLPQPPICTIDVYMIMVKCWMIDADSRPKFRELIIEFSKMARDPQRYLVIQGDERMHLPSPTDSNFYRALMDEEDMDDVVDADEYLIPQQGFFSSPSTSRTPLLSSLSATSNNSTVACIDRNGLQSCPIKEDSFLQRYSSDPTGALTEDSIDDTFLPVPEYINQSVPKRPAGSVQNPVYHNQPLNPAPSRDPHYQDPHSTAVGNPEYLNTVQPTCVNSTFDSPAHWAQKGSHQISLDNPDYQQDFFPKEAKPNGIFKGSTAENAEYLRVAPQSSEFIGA
Experimental: Assay 1: Exon19 Deletion EGFR (Activating Single Mutant) Cellular Phosphorylation Assay
The human lung cell line PC9 (Exon 19 deletion EGFR) were obtained from the American type Culture Collection. […] Cells were grown in a humidified incubator at 37° C. with 5% CO2. Assays to measure cellular phosphorylation of endogenous p-EGFR in cell lysates were carried out according to the protocol described in the R&D Systems DuoSet IC Human Phospho-EGF R ELISA (R&D Systems catalogue number #DYC1095). 40 μL of cells were seeded (10000 cells/well) in growth medium in Corning black, clear-bottomed 384-well plates and incubated at 37° C. with 5% CO2 overnight. […] Plates were incubated for a further 2 h, then following aspiration of medium, 40 μL 1× lysis buffer was added to each well. Greiner black high bind 384-well plates were coated with capture antibody and then blocked with 3% BSA. Following removal of block, […], of lysate were transferred to the Greiner black high bind 384-well plates and incubated for 2 hours. Following aspiration and washing of the plates with PBS, 20 μL of detection antibody were added and incubated for 2 hours. […] The data obtained with each compound was exported into a suitable software package (such as Origin) to perform curve fitting analysis.

[2] = target: T2, Wild-type EGFR (Homo sapiens, UniProt P00533); assay: Wild-type EGFR cellular phosphorylation assay; conditions: LoVo human colon cells; endogenous p-EGFR in cell lysates by ELISA; 2 h with compound, then stimulated 100 ng/ml for 10 minutes; read-out: Assay 3 (IC50)
T2 construct: Assays to measure cellular phosphorylation of endogenous p-EGFR in cell lysates; endogenous in cells; host or cells: LoVo (human colon cell line)
T2 sequence (P00533 25-1210): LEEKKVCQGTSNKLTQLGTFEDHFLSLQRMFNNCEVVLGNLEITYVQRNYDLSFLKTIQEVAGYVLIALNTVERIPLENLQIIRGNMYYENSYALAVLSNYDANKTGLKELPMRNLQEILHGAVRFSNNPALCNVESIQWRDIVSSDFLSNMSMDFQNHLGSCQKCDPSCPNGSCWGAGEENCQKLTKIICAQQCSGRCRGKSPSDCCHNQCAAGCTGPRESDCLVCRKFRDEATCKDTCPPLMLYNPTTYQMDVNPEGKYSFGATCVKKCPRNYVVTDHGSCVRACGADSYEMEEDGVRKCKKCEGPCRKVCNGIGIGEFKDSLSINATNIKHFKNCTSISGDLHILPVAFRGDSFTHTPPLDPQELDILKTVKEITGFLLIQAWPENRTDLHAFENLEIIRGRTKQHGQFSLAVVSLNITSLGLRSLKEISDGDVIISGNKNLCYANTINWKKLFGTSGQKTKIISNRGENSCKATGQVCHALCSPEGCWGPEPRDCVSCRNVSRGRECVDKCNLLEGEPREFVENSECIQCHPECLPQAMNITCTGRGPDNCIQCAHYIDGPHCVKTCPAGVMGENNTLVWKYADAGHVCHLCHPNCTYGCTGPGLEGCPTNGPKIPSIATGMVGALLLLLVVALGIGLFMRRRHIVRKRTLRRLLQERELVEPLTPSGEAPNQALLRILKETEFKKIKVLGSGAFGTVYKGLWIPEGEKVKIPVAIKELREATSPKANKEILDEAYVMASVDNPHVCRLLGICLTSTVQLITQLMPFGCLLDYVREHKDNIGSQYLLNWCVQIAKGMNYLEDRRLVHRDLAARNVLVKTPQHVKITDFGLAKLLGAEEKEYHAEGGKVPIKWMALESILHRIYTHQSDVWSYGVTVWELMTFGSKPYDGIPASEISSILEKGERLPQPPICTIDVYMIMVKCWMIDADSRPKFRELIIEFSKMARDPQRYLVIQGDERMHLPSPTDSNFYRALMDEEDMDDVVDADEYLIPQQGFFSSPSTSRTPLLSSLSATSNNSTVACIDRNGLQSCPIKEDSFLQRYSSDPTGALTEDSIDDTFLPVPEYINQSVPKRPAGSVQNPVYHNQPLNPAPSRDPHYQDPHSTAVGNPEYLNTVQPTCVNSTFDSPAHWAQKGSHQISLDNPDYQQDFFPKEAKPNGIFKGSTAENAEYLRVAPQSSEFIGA
Experimental: Assay 3: Wild-Type EGFR Cellular Phosphorylation Assay
The human colon cell line LoVo were obtained from the American type Culture Collection. […] Cells were grown in a humidified incubator at 37° C. with 5% CO2. Assays to measure cellular phosphorylation of endogenous p-EGFR in cell lysates were carried out according to the protocol described in the R&D Systems DuoSet IC Human Phospho-EGF R ELISA (R&D Systems catalogue number #DYC1095). 40 μL of cells were seeded (15000 cells/well) in growth medium in Corning black, clear-bottomed 384-well plates and incubated at 37° C. with 5% CO2 overnight. […] Plates were incubated for a further 2 h then stimulated with 100 ng/ml for 10 minutes and following aspiration of medium, 40 μL 1× lysis buffer was added to each well. Greiner black high bind 384-well plates were coated with capture antibody and then blocked with 3% BSA. […] Following aspiration and washing of the plates with PBS, 20 μL of detection antibody were added and incubated for 2 hours. […] The data obtained with each compound was exported into a suitable software package (such as Origin) to perform curve fitting analysis.

[3] = target: T3, L858R/T790M EGFR (Homo sapiens, UniProt P00533, L858R/T790M); assay: L858R/T790M EGFR (double mutant) cellular phosphorylation assay; conditions: NCI-H1975 human lung cells; endogenous p-EGFR in cell lysates by ELISA; 2 h with compound
T3 construct: Assays to measure cellular phosphorylation of endogenous p-EGFR in cell lysates; endogenous in cells; host or cells: NCI-H1975 (human lung cell line)
T3 sequence (P00533 25-1210 T790M/L858R): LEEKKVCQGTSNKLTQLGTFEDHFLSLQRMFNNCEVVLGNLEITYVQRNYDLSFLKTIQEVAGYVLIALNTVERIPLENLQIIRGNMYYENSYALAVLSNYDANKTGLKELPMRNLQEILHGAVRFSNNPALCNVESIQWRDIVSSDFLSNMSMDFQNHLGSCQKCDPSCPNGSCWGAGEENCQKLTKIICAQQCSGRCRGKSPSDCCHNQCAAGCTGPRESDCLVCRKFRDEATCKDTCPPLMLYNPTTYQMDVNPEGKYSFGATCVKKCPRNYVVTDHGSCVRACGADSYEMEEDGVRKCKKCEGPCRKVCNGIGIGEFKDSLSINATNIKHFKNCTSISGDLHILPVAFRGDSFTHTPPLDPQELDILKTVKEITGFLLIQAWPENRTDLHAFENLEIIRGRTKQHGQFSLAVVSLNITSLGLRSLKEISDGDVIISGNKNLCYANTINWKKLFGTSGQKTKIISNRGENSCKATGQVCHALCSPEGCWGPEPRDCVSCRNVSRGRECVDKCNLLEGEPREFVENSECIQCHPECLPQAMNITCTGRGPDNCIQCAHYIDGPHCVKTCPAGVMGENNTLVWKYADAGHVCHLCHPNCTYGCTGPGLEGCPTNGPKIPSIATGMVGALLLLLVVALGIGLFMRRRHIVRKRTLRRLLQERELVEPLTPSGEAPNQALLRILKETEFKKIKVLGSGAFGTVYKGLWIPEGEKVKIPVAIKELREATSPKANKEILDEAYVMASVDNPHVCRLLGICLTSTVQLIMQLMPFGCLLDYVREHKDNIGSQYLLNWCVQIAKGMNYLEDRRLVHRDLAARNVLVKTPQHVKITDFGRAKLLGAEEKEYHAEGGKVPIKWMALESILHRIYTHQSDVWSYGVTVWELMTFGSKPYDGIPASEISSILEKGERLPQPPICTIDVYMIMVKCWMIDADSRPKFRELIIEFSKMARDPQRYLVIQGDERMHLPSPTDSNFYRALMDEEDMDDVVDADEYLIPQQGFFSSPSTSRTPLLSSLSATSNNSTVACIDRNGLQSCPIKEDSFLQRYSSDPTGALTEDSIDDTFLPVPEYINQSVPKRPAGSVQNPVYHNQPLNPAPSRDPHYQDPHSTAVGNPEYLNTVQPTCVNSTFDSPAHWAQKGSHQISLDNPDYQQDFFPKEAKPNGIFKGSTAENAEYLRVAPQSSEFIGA
Experimental: Assay 2: L858R/T790M EGFR (Double Mutant) Cellular Phosphorylation Assay
The human lung cell lines NCI-H1975 were obtained from the American type Culture Collection. […] Cells were grown in a humidified incubator at 37° C. with 5% CO2.
Assays to measure cellular phosphorylation of endogenous p-EGFR in cell lysates were carried out according to the protocol described in the R&D Systems DuoSet IC Human Phospho-EGF R ELISA (R&D Systems catalogue number #DYC1095).
40 μL of cells were seeded (10000 cells/well) in growth medium in Corning black, clear-bottomed 384-well plates and incubated at 37° C. with 5% CO2 overnight. […] Plates were incubated for a further 2 h and following aspiration of medium, 40 μL 1× lysis buffer was added to each well. Greiner black high bind 384-well plates were coated with capture antibody and then blocked with 3% BSA. Following removal of block, 15 μL of lysate were transferred to the Greiner black high bind 384-well plates and incubated for 2 hours. Following aspiration and washing of the plates with PBS, 20 μL of detection antibody were added and incubated for 2 hours. […] 20 μL QuantaBlu stop solution were added to plates and fluorescence read on an Envision plate reader using
The data obtained with each compound was exported into a suitable software package (such as Origin) to perform curve fitting analysis.

SMILES	pIC50 [1]	pIC50 [2]	pIC50 [3]
C=CC(=O)Nc1cc(Nc2ncc(Cl)c(-c3c[nH]c4ccccc34)n2)c(OC)cc1N(C)CCN(C)C [Example 25, N-(5-{[5-Chloro-4-(1H-indol-3-yl)pyrimidin-2-yl]amino}-2-{2-dimethyl-aminoethyl-methylamino}-4-methoxyphenyl)prop-2-enamide]	9.24	7.96	9.62
C=CC(=O)Nc1cc(Nc2nccc(-c3cnn4c3CCCC4)n2)c(OC)cc1N(C)CCN(C)C [Example 42, N-(2-{2-Dimethylaminoethyl-methylamino}-4-methoxy-5-{[4-(4,5,6,7-tetrahydropyrazolo[1,5-a]pyridin-3-yl)pyrimidin-2-yl]amino}phenyl)prop-2-enamide]	8.28	6.34	8.29
C=CC(=O)Nc1cc(Nc2ncc(Cl)c(-c3cnn4ccccc34)n2)c(OC)cc1N(C)CCN1CCOCC1 [Example 31, N-{5-[(5-Chloro-4-pyrazolo[1,5-a]pyridin-3-ylpyrimidin-2-yl)amino]-4-methoxy-2-[methyl-(2-morpholin-4-ylethyl)amino]phenyl}prop-2-enamide]	7.43	5.60	8.13
C=CC(=O)Nc1cc(Nc2nccc(-c3cnn4ccccc34)n2)c(OC)cc1N(C)CCN(C)C [Example 54, N-{2-[2-Dimethylaminoethyl-methylamino]-4-methoxy-5-[(4-pyrazolo[1,5-a]pyridin-3-ylpyrimidin-2-yl)amino]phenyl}prop-2-enamide]	8.49	6.74	8.55
C=CC(=O)Nc1cc(Nc2nccc(-c3cn(C)c4ccccc34)n2)c(OC)cc1C1=CCN(C)CC1 [Example 48, N-(4-Methoxy-2-{1-methyl-3,6-dihydro-2H-pyridin-4-yl}-5-{[4-(1-methylindol-3-yl)pyrimidin-2-yl]amino}phenyl)prop-2-enamide]	7.40	5.80	7.51
C=CC(=O)Nc1cc(Nc2ncc(C)c(-c3cn(C)c4ccccc34)n2)c(OC)cc1N1CC[C@@H](N(C)C)C1 [Example 20, N-(2-{(3R)-3-Dimethylaminopyrrolidin-1-yl}-4-methoxy-5-{[5-methyl-4-(1-methylindol-3-yl)pyrimidin-2-yl]amino}phenyl)prop-2-enamide]	8.13	6.71	8.28
C=CC(=O)Nc1cc(Nc2ncc(C#N)c(-c3cn(C)c4ccccc34)n2)c(OC)cc1N1CCN(C)CC1 [Example 23, N-(5-{[5-Cyano-4-(1-methylindol-3-yl)pyrimidin-2-yl]amino}-4-methoxy-2-{4-methylpiperazin-1-yl}phenyl)prop-2-enamide]	7.77	5.52	7.75
C=CC(=O)Nc1cc(Nc2ncc(C#N)c(-c3cnn4ccccc34)n2)c(OC)cc1N1CC(N(C)C)C1 [Example 40, N-{5-[(5-Cyano-4-pyrazolo[1,5-a]pyridin-3-ylpyrimidin-2-yl)amino]-2-[3-dimethylaminoazetidin-1-yl]-4-methoxyphenyl}prop-2-enamide]	7.91	< 4.52	7.83
C=CC(=O)Nc1cc(Nc2nccc(-c3c[nH]c4ccccc34)n2)c(OC)cc1N(C)CCN(C)C [Example 59, N-(2-[2-Dimethylaminoethyl-methylamino]-5-{[4-(1H-indol-3-yl)pyrimidin-2-yl]amino}-4-methoxyphenyl)prop-2-enamide]	8.64	7.55	8.52
C=CC(=O)Nc1cc(Nc2ncc(Cl)c(-c3cn(C)c4ccccc34)n2)c(OC)cc1N1CC(N(C)C)C1 [Example 34, N-(5-{[5-Chloro-4-(1-methylindol-3-yl)pyrimidin-2-yl]amino}-2-{3-dimethylaminoazetidin-1-yl}-4-methoxyphenyl)prop-2-enamide]	8.04	6.82	8.42
C=CC(=O)Nc1cc(Nc2ncc(C#N)c(-c3cnn4ccccc34)n2)c(OC)cc1N1CCN(C)CC1 [Example 14, N-{5-[(5-Cyano-4-pyrazolo[1,5-a]pyridin-3-ylpyrimidin-2-yl)amino]-4-methoxy-2-[4-methylpiperazin-1-yl]phenyl}prop-2-enamide]	7.27	4.90	7.72
C=CC(=O)Nc1cc(Nc2ncc(C)c(-c3cnn4ccccc34)n2)c(OC)cc1C1=CCN(C)CC1 [Example 1, N-{4-Methoxy-2-[1-methyl-3,6-dihydro-2H-pyridin-4-yl]-5-[(5-methyl-4-pyrazolo[1,5-a]pyridin-3-ylpyrimidin-2-yl)amino]phenyl}prop-2-enamide]	8.12	6.32	8.30
C=CC(=O)Nc1cc(Nc2ncc(Cl)c(-c3cnn4ccccc34)n2)c(OC)cc1N1CC2(CCCN2C)C1 [Example 8, N-{5-[(5-Chloro-4-pyrazolo[1,5-a]pyridin-3-ylpyrimidin-2-yl)amino]-4-methoxy-2-[5-methyl-2,5-diazaspiro[3.4]octan-2-yl]phenyl}prop-2-enamide]	7.65	5.93	8.26
C=CC(=O)Nc1cc(Nc2nccc(-c3cn(C)c4ccccc34)n2)c(OC)cc1N(C)CCNC [Example 60, N-(4-Methoxy-5-{[4-(1-methylindol-3-yl)pyrimidin-2-yl]amino}-2-[methyl-(2-methylaminoethyl)amino]phenyl)prop-2-enamide]	7.84	6.20	7.31
C=CC(=O)Nc1cc(Nc2ncc(C#N)c(-c3cnn4ccccc34)n2)c(OC)cc1N(C)CCN(C)C [Example 39, N-{5-[(5-Cyano-4-pyrazolo[1,5-a]pyridin-3-ylpyrimidin-2-yl)amino]-2-[2-dimethylaminoethyl-methylamino]-4-methoxyphenyl}prop-2-enamide]	8.63	6.60	9.00
C=CC(=O)Nc1cc(Nc2nccc(-c3cn(C)c4ccccc34)n2)c(OC)cc1N1CC[C@@H]2CN(C)C[C@@H]21 [Example 41, N-(2-{(3aR,6aR)-5-Methyl-2,3,3a,4,6,6a-hexahydropyrrolo[3,4-b]pyrrol-1-yl}-4-methoxy-5-{[4-(1-methylindol-3-yl)pyrimidin-2-yl]amino}phenyl)prop-2-enamide]	7.54	5.73	7.53
C=CC(=O)Nc1cc(Nc2nccc(-c3cnn4ccccc34)n2)c(OC)cc1C1=CCN(C)CC1 [Example 51, N-{4-Methoxy-2-[1-methyl-3,6-dihydro-2H-pyridin-4-yl]-5-[(4-pyrazolo[1,5-a]pyridin-3-ylpyrimidin-2-yl)amino]phenyl}prop-2-enamide]	7.89	6.34	8.11
C=CC(=O)Nc1cc(Nc2nccc(-c3cnn4ccccc34)n2)c(OC)cc1N1CCN(C)CC1 [Example 16, N-[4-Methoxy-2-(4-methylpiperazin-1-yl)-5-[(4-pyrazolo[1,5-a]pyridin-3-ylpyrimidin-2-yl)amino]phenyl]prop-2-enamide]	6.84	< 4.72	7.15
